The test has as its target VMAT2 (human platelet homogenate) (Homo sapiens (Human), UniProt Q05940). Kind of test: Human VMAT2 Ki, slightly modified competition binding procedure (Table 11).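 Note: competition binding with 90 min incubation at 25 °C, after which filter-retained radioligand was measured by scintillation counting.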 The conditions noted are these: 10 nM 3H-dihydrotetrabenazine.
Chain of VMAT2 (human platelet homogenate) (Q05940 whole entry): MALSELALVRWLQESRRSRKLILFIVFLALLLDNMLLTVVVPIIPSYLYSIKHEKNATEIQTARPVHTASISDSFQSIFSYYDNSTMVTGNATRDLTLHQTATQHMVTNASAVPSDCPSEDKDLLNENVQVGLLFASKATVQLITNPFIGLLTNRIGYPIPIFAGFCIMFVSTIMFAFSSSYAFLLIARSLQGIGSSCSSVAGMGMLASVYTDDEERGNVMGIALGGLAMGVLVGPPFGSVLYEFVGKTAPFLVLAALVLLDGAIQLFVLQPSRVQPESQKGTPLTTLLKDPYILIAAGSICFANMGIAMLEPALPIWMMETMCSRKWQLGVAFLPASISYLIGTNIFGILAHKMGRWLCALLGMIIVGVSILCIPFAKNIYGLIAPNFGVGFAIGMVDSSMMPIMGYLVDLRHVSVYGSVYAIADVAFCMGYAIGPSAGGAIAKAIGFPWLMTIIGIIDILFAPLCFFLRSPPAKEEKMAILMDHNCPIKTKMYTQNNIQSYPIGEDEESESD
Protocol: Following incubation at 25° C. for 90 minutes, bound radioligand was collected by rapid filtration onto GF/B glass fiber filters using a Unifilter-96 Harvester (PerkinElmer). Filter plates were pre-treated with 0.1% polyethylenimine and allowed to dry overnight, and following harvesting the filter plates were washed with 800 d VMAT2 binding buffer. Bound radioligand was quantified by scintillation counting using a Topcount NXT (PerkinElmer).
One may read the Ki as a measure of affinity in units of concentration, obtained from inhibition or displacement. Read a low Ki as a stronger hold on the target. On to `COc1cc2c(cc1OC)[C@H]1C[C@@H](COC(=O)C3CCCN(C)C3)[C@H](CC(C)C)CN1CC2` (stereo partly drawn) [Compound 2-12, [(2R,3S,11bR)-9,10-dimethoxy-3-(2-methylpropyl)-1H,2H,3H,4H,6H,7H,11bH-pyrido[2,1-a]isoquinolin-2-yl]methyl 1-methylpiperidine-3-carboxylate], for which the Ki was less than 10 nM.

`COc1cc2c(cc1OC)[C@H]1C[C@@H](COC(=O)CCn3cnnn3)[C@H](CC(C)C)CN1CC2` [Compound 2-13, [(2R,3S,11bR)-9,10-dimethoxy-3-(2-methylpropyl)-1H,2H,3H,4H,6H,7H,11bH-pyrido[2,1-a]isoquinolin-2-yl]methyl 3-(1H-1,2,3,4-tetrazol-1-yl)propanoate] registered a Ki of less than 10 nM.

With `COc1cc2c(cc1OC)[C@H]1C[C@@H](COC(=O)CC[N+](=O)[O-])[C@H](CC(C)C)CN1CC2` [Compound 2-14, [(2R,3S,11bR)-9,10-dimethoxy-3-(2-methylpropyl)-1H,2H,3H,4H,6H,7H,11bH-pyrido[2,1-a]isoquinolin-2-yl]methyl 3-nitropropanoate], the inhibition constant (Ki) is less than 10 nM. The figure for `COc1cc2c(cc1OC)[C@H]1C[C@@H](COC(=O)CCN3CCN(C)CC3)[C@H](CC(C)C)CN1CC2` [Compound 2-15, [(2R,3S,11bR)-9,10-dimethoxy-3-(2-methylpropyl)-1H,2H,3H,4H,6H,7H,11bH-pyrido[2,1-a]isoquinolin-2-yl]methyl 3-(4-methylpiperazin-1-yl)propanoate] is less than 10 nM. The figure for `COc1cc2c(cc1OC)[C@H]1C[C@@H](COC(=O)CCNS(=O)(=O)C(C)C)[C@H](CC(C)C)CN1CC2` [Compound 2-16, [(2R,3S,11bR)-9,10-dimethoxy-3-(2-methylpropyl)-1H,2H,3H,4H,6H,7H,11bH-pyrido[2,1-a]isoquinolin-2-yl]methyl 3-(propane-2-sulfonamido)propanoate] is less than 10 nM; for `COc1cc2c(cc1OC)[C@H]1C[C@@H](COC(=O)C(C)(C)C)[C@H](CC(C)C)CN1CC2` [Compound 2-17, [(2R,3S,11bR)-9,10-dimethoxy-3-(2-methylpropyl)-1H,2H,3H,4H,6H,7H,11bH-pyrido[2,1-a]isoquinolin-2-yl]methyl 2,2-dimethylpropanoate] it is 10 to 500 nM; for `COc1cc2c(cc1OC)[C@H]1C[C@@H](COC(=O)C3(C)COC3)[C@H](CC(C)C)CN1CC2` [Compound 2-18, [(2R,3S,11bR)-9,10-dimethoxy-3-(2-methylpropyl)-1H,2H,3H,4H,6H,7H,11bH-pyrido[2,1-a]isoquinolin-2-yl]methyl 3-methyloxetane-3-carboxylate] it is less than 10 nM. `COc1cc2c(cc1OC)[C@H]1C[C@@H](COC(=O)CCN3CCCCC3)[C@H](CC(C)C)CN1CC2` [Compound 2-19, [(2R,3S,11bR)-9,10-dimethoxy-3-(2-methylpropyl)-1H,2H,3H,4H,6H,7H,11bH-pyrido[2,1-a]isoquinolin-2-yl]methyl 3-(piperidin-1-yl)propanoate] had an inhibition constant Ki of less than 10 nM. For the compound `COc1cc2c(cc1OC)[C@H]1C[C@@H](COC(=O)C3CN(Cc4ccccc4)C3)[C@H](CC(C)C)CN1CC2` [Compound 2-21, [(2R,3S,11bR)-9,10-dimethoxy-3-(2-methylpropyl)-1H,2H,3H,4H,6H,7H,11bH-pyrido[2,1-a]isoquinolin-2-yl]methyl 1-benzylazetidine-3-carboxylate], the inhibition constant Ki was less than 10 nM. The figure for `COc1cc2c(cc1OC)[C@H]1C[C@@H](COC(=O)C3CCOCC3)[C@H](CC(C)C)CN1CC2` [Compound 2-22, [(2R,3S,11bR)-9,10-dimethoxy-3-(2-methylpropyl)-1H,2H,3H,4H,6H,7H,11bH-pyrido[2,1-a]isoquinolin-2-yl]methyl oxane-4-carboxylate] is less than 10 nM.

As to `COc1cc2c(cc1OC)[C@H]1C[C@@H](COC(=O)CCn3ccc(C)n3)[C@H](CC(C)C)CN1CC2` [Compound 2-23, [(2R,3S,11bR)-9,10-dimethoxy-3-(2-methylpropyl)-1H,2H,3H,4H,6H,7H,11bH-pyrido[2,1-a]isoquinolin-2-yl]methyl 3-(3-methyl-1H-pyrazol-1-yl)propanoate], the inhibition constant Ki was less than 10 nM. `COc1cc2c(cc1OC)[C@H]1C[C@@H](COC(=O)C(C)(C)O)[C@H](CC(C)C)CN1CC2` [Compound 2-24, [(2R,3S,11bR)-9,10-dimethoxy-3-(2-methylpropyl)-1H,2H,3H,4H,6H,7H,11bH-pyrido[2,1-a]isoquinolin-2-yl]methyl 2-hydroxy-2-methylpropanoate]: the inhibition constant Ki was 10 to 500 nM. Regarding `COc1cc2c(cc1OC)[C@H]1C[C@@H](COC(=O)[C@H]3CCN(Cc4ccccc4)C3)[C@H](CC(C)C)CN1CC2` [Compound 2-26, [(2R,3S,11bR)-9,10-dimethoxy-3-(2-methylpropyl)-1H,2H,3H,4H,6H,7H,11bH-pyrido[2,1-a]isoquinolin-2-yl]methyl (3S)-1-benzylpyrrolidine-3-carboxylate], the inhibitory constant (Ki) is less than 10 nM. In the case of `COc1cc2c(cc1OC)C1CC(COC(=O)C3CC(C)(C)N([O])C3(C)C)C(CC(C)C)CN1CC2` [Compound 2-27, [3-({[(2R,3S,11bR)-9,10-dimethoxy-3-(2-methylpropyl)-1H,2H,3H,4H,6H,7H,11bH-pyrido[2,1-a]isoquinolin-2-yl]methoxy}carbonyl)-2,2,5,5-tetramethylpyrrolidin-1-yl]oxidanyl], the inhibitory constant (Ki) lay within 10 to 500 nM. The figure for `COc1cc2c(cc1OC)[C@H]1C[C@@H](COC(=O)CC(C)(C)n3cccc3)[C@H](CC(C)C)CN1CC2` [Compound 2-28, [(2R,3S,11bR)-9,10-dimethoxy-3-(2-methylpropyl)-1H,2H,3H,4H,6H,7H,11bH-pyrido[2,1-a]isoquinolin-2-yl]methyl 3-methyl-3-(1H-pyrrol-1-yl)butanoate] is 10 to 500 nM. The figure for `COc1cc2c(cc1OC)[C@H]1C[C@@H](COC(=O)CCn3nccc3C)[C@H](CC(C)C)CN1CC2` [Compound 2-29, [(2R,3S,11bR)-9,10-dimethoxy-3-(2-methylpropyl)-1H,2H,3H,4H,6H,7H,11bH-pyrido[2,1-a]isoquinolin-2-yl]methyl 3-(5-methyl-1H-pyrazol-1-yl)propanoate] is 10 to 500 nM; for `COc1cc2c(cc1OC)[C@H]1C[C@@H](COC(=O)CC3NC(=O)NC3=O)[C@H](CC(C)C)CN1CC2` (stereo partly drawn) [Compound 2-30, [(2R,3S,11bR)-9,10-dimethoxy-3-(2-methylpropyl)-1H,2H,3H,4H,6H,7H,11bH-pyrido[2,1-a]isoquinolin-2-yl]methyl 2-(2,5-dioxoimidazolidin-4-yl)acetate] it is less than 10 nM. The figure for `COc1cc2c(cc1OC)[C@H]1C[C@@H](COC(=O)[C@@H]3CC(=O)NC(=O)N3)[C@H](CC(C)C)CN1CC2` [Compound 2-31, [(2R,3S,11bR)-9,10-dimethoxy-3-(2-methylpropyl)-1H,2H,3H,4H,6H,7H,11bH-pyrido[2,1-a]isoquinolin-2-yl]methyl (4S)-2,6-dioxo-1,3-diazinane-4-carboxylate] is less than 10 nM; for `CCN(CC)CCC(=O)OC[C@@H]1C[C@@H]2c3cc(OC)c(OC)cc3CCN2C[C@H]1CC(C)C` [Compound 2-32, [(2R,3S,11bR)-9,10-dimethoxy-3-(2-methylpropyl)-1H,2H,3H,4H,6H,7H,11bH-pyrido[2,1-a]isoquinolin-2-yl]methyl 3-(diethylamino)propanoate] it is less than 10 nM.
